Assay results from patent US20160046665A1, “Peptide Ligand with Antibody Selectivity and the Application Thereof” (National Central University, priority 2014, published 2016).
“Also recorded” adds a separate entry of the source.

How the values were obtained:
Type in all cases: binding
PSA = experiment: SPR sensitivity detection with micro concentration antigen, chip with Rabbit IgG; settings: Rabbit IgG absorbed on chip, Rabbit IgG flowed again for increasing signal, FIG. 7A
Description: In the following experiments, antigen in micro concentration is employed for detecting the sensitivity of peptide ligand chips being able to recognize Rabbit IgG and Mouse IgG2a, and the experimental results are shown in FIG. 7A and FIG. 7B.
Firstly, Rabbit IgG and Mouse IgG2a are respectively absorbed to GGEGELW and GGRRGW. After flowing micro concentration antigen through, Rabbit IgG and Mouse IgG2a are flowed through the chip surface for increasing the detected signal. […] According to FIG. 7A and FIG. 7B, the signal of about 2 ng/mL PSA can be detected from Mouse IgG2a of GGRRGW chip surface, and the signal of about 1 ng/mL PSA can be detected from Rabbit IgG of GGEGELW chip surface. Therefore, it proves that the peptide ligand of this specification can efficiently improve the antigen sensitivity.

Mouse IgG2a [1] = experiment: SPR analysis of antibody oriented immobilization (orientation factor), Mouse IgG2a; settings: ratio of PSA and 2nd antibody, FIG. 6B
Target sequence in this assay (P01863 98-330 limits assumed): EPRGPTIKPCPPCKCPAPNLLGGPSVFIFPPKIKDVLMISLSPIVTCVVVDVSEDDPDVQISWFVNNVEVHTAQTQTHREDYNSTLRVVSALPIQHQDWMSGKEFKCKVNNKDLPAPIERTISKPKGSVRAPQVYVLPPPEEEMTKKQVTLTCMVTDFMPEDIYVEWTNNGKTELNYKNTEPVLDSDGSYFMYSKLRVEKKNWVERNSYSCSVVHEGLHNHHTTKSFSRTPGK

Rabbit IgG = experiment: SPR absorption of Rabbit IgG on different chip surfaces
Description: (§1) In this and the following examples, we employ Surface Plasmon resonance (SPR) as detecting equipment. The method for modifying SPR chip surface is briefly illustrated as following.
(§2) OEG [(11-Mercaptoundecyl)tetra(ethyleneglycol)] and OEG-COOH [HS(CH2)11(EG)6OCH2COOH] are mixed at the ratio of 10:1. Through strong gold-sulfur bonding, OEG and OEG-COOH are employed for modifying SPR chip surface to form mixed SAM (self-assembly monolayer). The mixed SAM surface comprises carboxyl group with negative charge, and hydroxyl group with hydrophilicity. The carboxyl group with negative charge on the SPR chip surface can be activated by EDC/20% DMSO. By reacting the 1° amino group of EDA (ethylenediamine) with the carboxyl group on the SPR chip surface to form amide bonding, the SPR chip surface can be modified into positive charge. And, in the same condition, the peptide ligand according to this invention can be grafted onto the SPR chip surface to form a peptide ligand surface.)
(§3) 1. 5 mM peptide ligand, 200 mM EDC, and 20% DMSO are prepared into 0.1 M pH=6.0 MES buffer solution.
(§4) In this example, SPR is employed for measuring the absorption of target antibody, rabbit immunoglobulin (Rabbit IgG), and target antigen, prostate specific antigen (PSA), on different charge surfaces and different peptide ligand surfaces. The mentioned different chip surfaces are employed for absorbing Rabbit IgG, washed with phosphate buffer (PB) solution, and employed to absorb PSA directly. Then, PB buffer solution is used to wash out the PSA not recognized by Rabbit IgG for measuring the absorption of antibody and antigen. The experimental process is roughly shown as following.
(§5) 1. 10 μg/mL Rabbit IgG is prepared in 0.01 M pH=7.4 PB buffer solution.
3. […]
(§6) In the above experiments, Surface Plasmon Resonance (SPR) is employed for measuring the antigen recognition efficiency of antibody on different modified chip surfaces. The recognition efficiency of Rabbit IgG and PSA on different chip with different charge surface and different peptide ligand is detected. […]

[2] = system: prostate specific antigen (PSA); experiment: SPR PSA absorption / antigen recognition on chip surfaces with Rabbit IgG; settings: FIG. 4A
Description: as §4, §5
2. 5 μg/mL PSA is prepared in 0.01 M pH=7.4 PB buffer solution.
3. The negative charge, positive charge, and peptide ligand modified chips are put on SPR respectively.
4. The flow rate is set at 20 μL/min.
5. Rabbit IgG, PB, PSA, and PB are flowed through the channel in sequence. The absorption time is about 60 minutes, and the desorption time is about 50 minutes.
(§7) Different chips with Rabbit IgG and Mouse IgG2a are used for PSA absorption experiment, and the PSA absorption is transferred to protein absorption by the above-mentioned formula, as shown in FIG. 3A and FIG. 3B.
(§8) In order to compare antigen recognition efficiency, we define “antigen recognition efficiency” as following: […]

Mouse IgG2a [3] = experiment: SPR absorption of Mouse IgG2a on different chip surfaces; settings: FIG. 2
Description: as §1, §2, §3, §6

[4] = system: prostate specific antigen (PSA); experiment: SPR PSA absorption / antigen recognition on chip surfaces with Mouse IgG2a
Description: as §4, §7, §8

Chain of Rabbit IgG (P01870 101-323 limits assumed): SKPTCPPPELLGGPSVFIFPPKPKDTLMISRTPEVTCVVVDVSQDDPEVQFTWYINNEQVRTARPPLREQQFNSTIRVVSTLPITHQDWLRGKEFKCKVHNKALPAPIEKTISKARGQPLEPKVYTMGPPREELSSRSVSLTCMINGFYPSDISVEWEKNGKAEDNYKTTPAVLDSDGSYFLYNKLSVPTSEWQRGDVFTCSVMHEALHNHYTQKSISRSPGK

Substance: GGEGELW
- PSA concentration whose signal can be detected by SPR (PSA): about 1 ng/mL

Substance: RRGW
- orientation factor, chip surface with Mouse IgG2a (Mouse IgG2a [1]): good
- specificity to these antibodies (Rabbit IgG; Rabbit IgG versus Mouse IgG2a absorption, FIG. 1B compared with FIG. 2): does not have specificity
- Rabbit IgG absorption on chip surface (in words) (Rabbit IgG; SPR, FIG. 1B): not much difference; also recorded: great
- Rabbit IgG absorption to the chip surface (Rabbit IgG; SPR, peptide ligand chip surface, FIG. 3A): about 0.2 mol/cm^2
- antigen recognition efficiency of Rabbit IgG [2]: not good
- Mouse IgG2a absorption on chip surface (in words) (Mouse IgG2a [3]): great; also recorded: higher
- antigen recognition efficiency of Mouse IgG2a ([4]; PSA, FIG. 4B): great
- PSA absorption on chip surface with Mouse IgG2a (in words) ([4]; SPR, FIG. 3B): great
- oriented immobilization of Mouse IgG2a on chip surface ([4]; deduced from Mouse IgG2a and PSA absorption): great
